# Test results: patent US20240301319A1, “PERFUMING COMPOSITIONS” (FIRMNICH SA, priority 2017, published 2024)
# Assays:
# [1] = Volatility of perfuming compounds (Tables 4 to 10), with top/middle/bottom note type; type: physicochemical
# In short: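 Volatility is expressed in μg/l in air. Top notes are 70,000 to 100 μg/l, middle notes 99 to 50 μg/l, and bottom notes 49 to 0.1 μg/l. Compounds are grouped by olfactive family: watery, green, fruity, citrus, sweet, gourmand and woody.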
# [2] = Odor threshold and odor value of perfuming compounds (Tables 4 to 10)
# [3] = note type (Top/Middle/Bottom) by volatility, perfuming compounds having a green note
# [4] = perfuming compounds having a green note
# [5] = Table 7, citrus note, top, middle or bottom note
# [6] = Table 7, citrus note, equals volatility divided by odor threshold
# [7] = Table 8, perfuming compounds having a sweet note
# [8] = Table 8, perfuming compounds having a sweet note, note type by volatility
# [9] = Table 9, perfuming compounds having a gourmand note, note type by volatility
# [10] = Table 10, perfuming compounds having a woody note, note type by volatility
# [11] = Table 6, perfuming compounds having a fruity note
# [12] = Table 6, perfuming compounds having a fruity note, note type by volatility
# [13] = Table 4, watery note, top, middle or bottom note
# [14] = Table 4, watery note, equals volatility divided by odor threshold
compound,measurement,setting,value
CC(C)=CC1CC(C)CCO1 (stereo not drawn),Type,[1]; [3],Top
same,Volatility (μg/l air),[1]; [4],2483.93 μg/l air
same,Odor Threshold (μg/l air),[2]; [4],8.77E−04 μg/l air
"(Z)-3,7-DIMETHYL-2,6-OCTADIENAL (A) + (E)-3,7-DIMETHYL-2,6-OCTADIENAL (B)",Volatility (μg/l air),"[1]; Table 7, citrus note",202.66 μg/l air
same,Type,[1]; [5],Top
same,Odor Threshold (μg/l air),"[2]; Table 7, citrus note",4.12E−03 μg/l air
same,Odor Value,[2]; [6],4.92E+04
CCCCO [1-BUTANOL],Volatility,[1]; [7],17700.00 μg/l air
same,Type,[1]; [8],Top
same,Volatility,"[1]; Table 9, gourmand note",17700.00 μg/l air
same,Type,[1]; [9],Top
same,Type,[1]; [10],Top
same,Volatility,"[1]; Table 10, woody note",17700.00 μg/l air
same,Type,[1]; [3],Top
same,Volatility (μg/l air),[1]; [4],17700.00 μg/l air
same,Odor Threshold,[2]; [7],8.70E−02 μg/l air
same,Odor Value,[2]; [7],2.03E+05
same,Odor Threshold,"[2]; Table 9, gourmand note",8.70E−02 μg/l air
same,Odor Threshold,"[2]; Table 10, woody note",8.70E−02 μg/l air
same,Odor Threshold (μg/l air),[2]; [4],8.70E−02 μg/l air
CCCC1CCC(=O)O1 (racemic) [(+−)-4-HEPTANOLIDE],Volatility,[1]; [7],295.34 μg/l air
same,Type,[1]; [8],Top
same,Odor Threshold,[2]; [7],5.18E−04 μg/l air
same,Odor Value,[2]; [7],5.70E+05
CC(=O)OC(C)c1ccccc1 (racemic) [(+−)-1-PHENYLETHYL ACETATE],Volatility,[1]; [11],387.96 μg/l air
same,Type,[1]; [12],"TOP (perfuming compounds having a volatility ranging from 70,000 to 100 μg/l in air are referred to as “top notes”)"
same,Volatility (μg/l air),"[1]; Table 7, citrus note",387.96 μg/l air
same,Type,[1]; [5],Top
same,Odor Threshold (μg/l air),"[2]; Table 7, citrus note",4.43E−02 μg/l air
same,Odor Value,[2]; [6],8.75E+03
"CC1(C)C2C[C@H]3CCC(=O)C=C3[C@@H]1C2 (single isomer, unassigned; (+))",Type,[1]; [10],Bottom
same,Volatility,"[1]; Table 10, woody note",4.86 μg/l air
same,Odor Threshold,"[2]; Table 10, woody note",2.86E−05 μg/l air
CCCC(O)CCC1C(C)CCC(C)C1(C)C (racemic),Type,[1]; [10],Bottom
same,Volatility,"[1]; Table 10, woody note",3.42 μg/l air
same,Odor Threshold,"[2]; Table 10, woody note",4.05E−04 μg/l air
"CC(CC=O)CCCC(C)(C)O (racemic) [(+−)-7-hydroxy-3,7-dimethyloctanal]",Volatility (μg/l air),"[1]; Table 4, watery note",12.81 μg/l air
same,Type,[1]; [13],bottom (perfuming compounds having a volatility ranging from 49 to 0.1 μg/l in air are referred to as “bottom notes”)
same,Odor Threshold (μg/l air),"[2]; Table 4, watery note",6.98E−03 μg/l air
same,Odor Value,[2]; [14],1.84E+03
CC(C)(C)C1CCC(=O)CC1 [4-(2-methyl-2-propanyl)cyclohexanone],Type,[1]; [10],Top
same,Volatility,"[1]; Table 10, woody note",755.28 μg/l air
same,Odor Threshold,"[2]; Table 10, woody note",1.15E−01 μg/l air
CCC(=O)OC/C=C/c1ccccc1 [(E)-3-PHENYL-2-PROPENYL PROPANOATE],Volatility,[1]; [11],8.14 μg/l air
same,Type,[1]; [12],Bottom
same,Odor Threshold,[2]; [11],1.28E−04 μg/l air
same,Odor Value,[2]; [11],6.35E+04
CC1=CC[C@H](C(C)CC2CCCC2=O)CC1 (stereo partly drawn),Volatility,[1]; [11],2.05 μg/l air
same,Type,[1]; [12],Bottom
same,Volatility,[1]; [7],2.05 μg/l air
same,Type,[1]; [8],Bottom
same,Volatility,"[1]; Table 9, gourmand note",2.05 μg/l air
same,Type,[1]; [9],Bottom
same,Odor Threshold,[2]; [11],1.66E−04 μg/l air
same,Odor Value,[2]; [11],1.24E+04
same,Odor Threshold,[2]; [7],1.66E−04 μg/l air
same,Odor Value,[2]; [7],1.24E+04
same,Odor Threshold,"[2]; Table 9, gourmand note",1.66E−04 μg/l air
CC(=O)OC/C=C/c1ccccc1 [(E)-3-PHENYL-2-PROPENYL ACETATE],Volatility,[1]; [11],20.47 μg/l air
same,Type,[1]; [12],Bottom
same,Odor Threshold,[2]; [11],1.87E−04 μg/l air
same,Odor Value,[2]; [11],1.10E+05
COc1cc(C)ccc1O [2-METHOXY-4-METHYLPHENOL],Volatility,[1]; [7],306.61 μg/l air
same,Type,[1]; [8],Top
same,Odor Threshold,[2]; [7],6.96E−04 μg/l air
same,Odor Value,[2]; [7],4.41E+05
"CC(=O)OCCC(C)CCC=C(C)C (stereo not drawn) [3,7-DIMETHYL-6-OCTENYL ACETATE]",Volatility,[1]; [11],128.72 μg/l air
same,Type,[1]; [12],"TOP (perfuming compounds having a volatility ranging from 70,000 to 100 μg/l in air are referred to as “top notes”)"
same,Odor Threshold,[2]; [11],2.75E−02 μg/l air
same,Odor Value,[2]; [11],4.68E+03
CCCCCCOC(=O)C(C)C [hexyl 2-methylpropanoate],Volatility,[1]; [11],1661.18 μg/l air
same,Type,[1]; [12],"TOP (perfuming compounds having a volatility ranging from 70,000 to 100 μg/l in air are referred to as “top notes”)"
same,Type,[1]; [3],Top
same,Volatility (μg/l air),[1]; [4],1661.18 μg/l air
same,Odor Threshold (μg/l air),[2]; [4],7.15E−01 μg/l air
"COc1ccc(OC)c(C(C)(C)C)c1 [2-TERT-BUTYL-1,4-DIMETHOXYBENZENE]",Type,[1]; [10],Middle
same,Volatility,"[1]; Table 10, woody note",82.95 μg/l air
same,Odor Threshold,"[2]; Table 10, woody note",1.65E−02 μg/l air
CC(=O)/C(C)=C(/C)C(C)C(C)(C)C (racemic),Type,[1]; [10],Top
same,Volatility,"[1]; Table 10, woody note",659.22 μg/l air
same,Odor Threshold,"[2]; Table 10, woody note",7.24E−02 μg/l air
"CC(CC=O)CC(C)(C)C (racemic) [(+−)-3,5,5-TRIMETHYLHEXANAL]",Type,[1]; [3],Top
same,Volatility (μg/l air),[1]; [4],12045.92 μg/l air
same,Odor Threshold (μg/l air),[2]; [4],9.37E−03 μg/l air
CC(C)CCOCCc1ccccc1 [3-METHYLBUTYL 2-PHENYLETHYL ETHER],Volatility,[1]; [11],110.11 μg/l air
same,Type,[1]; [12],"TOP (perfuming compounds having a volatility ranging from 70,000 to 100 μg/l in air are referred to as “top notes”)"
same,Volatility,[1]; [7],110.11 μg/l air
same,Type,[1]; [8],Top
same,Volatility,"[1]; Table 9, gourmand note",110.11 μg/l air
same,Type,[1]; [9],Top
same,Odor Threshold,[2]; [11],1.38E−02 μg/l air
same,Odor Value,[2]; [11],7.96E+03
same,Odor Threshold,[2]; [7],1.38E−02 μg/l air
same,Odor Value,[2]; [7],7.96E+03
same,Odor Threshold,"[2]; Table 9, gourmand note",1.38E−02 μg/l air
CC=CC(=O)C(C)CC (stereo not drawn) [5-METHYL-2-HEPTEN-4-ONE],Volatility,[1]; [7],5525.83 μg/l air
same,Type,[1]; [8],Top
same,Odor Threshold,[2]; [7],7.62E−07 μg/l air
same,Odor Value,[2]; [7],7.26E+09
"Cc1cnc(C)c(C)n1 [2,3,5-TRIMETHYLPYRAZINE]",Volatility,[1]; [7],7897.31 μg/l air
same,Type,[1]; [8],Top
same,Odor Threshold,[2]; [7],2.82E−04 μg/l air
same,Odor Value,[2]; [7],2.80E+07
"(1S,4S,9S,10R,13R)-5,5,9,13-tetramethyl-14,16-dioxatetracyclo[11.2.1.0~1,10~.0~4,9~]hexadecane (A) + (1R,4S,9S,10R,13S)-5,5,9,13-tetramethyl-14,16-dioxatetracyclo[11.2.1.0~1,10~.0~4,9~]hexadecane (B)",Volatility (μg/l air),"[1]; Table 4, watery note",6.77 μg/l air
same,Type,[1]; [13],bottom (perfuming compounds having a volatility ranging from 49 to 0.1 μg/l in air are referred to as “bottom notes”)
same,Odor Threshold (μg/l air),"[2]; Table 4, watery note",4.36E−04 μg/l air
same,Odor Value,[2]; [14],1.55E+04
CC/C=C\CCO [(Z)-3-HEXEN-1-OL],Type,[1]; [3],Top
same,Volatility (μg/l air),[1]; [4],5986.62 μg/l air
same,Odor Threshold (μg/l air),[2]; [4],1.13E−02 μg/l air
"TRICYCLO[5.2.1.0(2,6)]DEC-3-EN-8-YL PROPANOATE (A) + TRICYCLO[5.2.1.0(2,6)]DEC-4-EN-8-YL PROPANOATE (B)",Volatility (μg/l air),"[1]; Table 7, citrus note",35.82 μg/l air
same,Type,[1]; [5],Bottom
same,Odor Threshold (μg/l air),"[2]; Table 7, citrus note",2.44E−04 μg/l air
same,Odor Value,[2]; [6],1.47E+05
COc1cc(C=O)ccc1OC(=O)C(C)C,Volatility,[1]; [11],1.01 μg/l air
same,Type,[1]; [12],Bottom
same,Volatility,[1]; [7],1.01 μg/l air
same,Type,[1]; [8],Bottom
same,Volatility,"[1]; Table 9, gourmand note",1.01 μg/l air
same,Type,[1]; [9],Bottom
same,Odor Threshold,[2]; [11],7.33E−05 μg/l air
same,Odor Value,[2]; [11],1.38E+04
same,Odor Threshold,[2]; [7],7.33E−05 μg/l air
same,Odor Value,[2]; [7],1.38E+04
same,Odor Threshold,"[2]; Table 9, gourmand note",7.33E−05 μg/l air
CCCCC/C=C/CCC=O [(E)-4-DECENAL],Volatility (μg/l air),"[1]; Table 7, citrus note",691.34 μg/l air
same,Type,[1]; [5],Top
same,Odor Threshold (μg/l air),"[2]; Table 7, citrus note",7.59E−05 μg/l air
same,Odor Value,[2]; [6],9.11E+06
